Experiments:
[1] = test system: c-fos mRNA (Trk receptor tyrosine kinase signaling); experiment: RT-PCR analysis of neurotrophin-dependent c-fos induction; format: cell-based, rat; settings: pretreatment with RA for 6 days
Experimental: (§1) Cell Culture. For proliferating conditions, clonal stem cells (AP14) were cultured in Dulbecco's Modified Eagles Medium/Ham's F12 (DMEM/F12, 1:1) containing N2 supplement (Gibco BRL, Gaithersburg, Md.) and 20 ng/ml rhFGF-2 (provided by A. Baird, Prizm Pharmaceuticals Inc., La Jolla, Calif.). Culture dishes (Becton Dickinsin Labware, Lincoln Park, N.J.) were coated with polyomithine and mouse laminin as previously described by Ray, et al., Proliferation, differentiation and long-term culture of primary hippocampal neurons, Proc Natl Acad Sci USA 90:3602-3606 (1993). For differentiation experiments, cells were plated into polyornithine/laminin coated glass chamber slides (Nunc, Naperville, Ill.) at a density of 2.5—103 per cm2. The cells were incubated for 24 hrs in normal N2 medium containing 20 ng/ml FGF-2, and then the medium was replaced by N2 medium containing 0.5% […] (FBS) and 0.01% DMSO (control solvent) or […] all-trans retinoic acid (Sigma, St. Louis, Mo.). For further differentiation, the medium was replaced by N2 medium containing 0.5% FBS and one of the following: sterile water (control solvent), mouse 2.55 NGF (50 ng/ml, Boehringer Mannheim, Indianapolis, Ind.), rhBDNF (20 ng/ml, Alomone Labs, Jerusalem, Israel), rhNT-3 (40 ng/ml, Genentech, South San Francisco, Calif.). The medium was replaced every two days. For inhibition of the tyrosine kinase activity of the Trk receptors, K-252a (100 nM, Calbiochem, San Diego, Calif.) was added to the medium.
Reverse Transcription-PCR Analysis. Total RNA from stem cells was isolated using RNeasy Total RNA Kits (Qiagen, Chatsworth, Calif.) according to manufacturer's instructions. Fifty nanograms of total RNA was reverse transcribed using avian myeloblastosis virus reverse transcriptase (Promega, Madison, Wis.) with random hexamers ([…]) as primers in a […] reaction mixture. For PCR amplification, two sets of specific oligonucleotide pairs ([…]) were used: one directed to the transcript of interest, and one for a constitutively expressed transcript, either ribosomal protein L27 or L27a. Reactions were performed in a […] reaction mixture containing 10 mM Tris-Cl (pH 8.4), 50 mm KCl, 1.5 mM MgC12, […] each of the four dNTPs, 2 mCi of [a-32P]dCTP and 5 units of Taq polymerase (Promega) using a thermal cycler (Perkin-Elmer, Foster City, Calif.) with a regimen of 1 min at 94° C., 2 min at 60° C. (55° C. for trk receptors) and 2 min at 72° C. for 23 cycles Fifty microliters of each reaction was analyzed by electrophoresis on 8% polyacrylamide gels followed by autoradiography. […] Under these conditions, the L27 amplification product was directly proportional to the amount of input RNA, up to 50 ng total RNA. Oligonucleotide primers used are as follows: […]
RA treatment also results in neurotrophin-dependent induction of c-fos. Transient and rapid induction of immediate early genes such as c-fos is a well-characterized response to extracellular stimuli in neural cells. c-fos is induced after neurotrophin treatment in cultured […] hippocampal or cortical cells and the signaling cascade following c-fos induction is considered to be integral to subsequent steps in differentiation. To determine whether upregulation of mRNAs for trk receptors and p75NGFR observed in the stem cell cultures results in the acquisition of functional Trk-dependent stimulation of c-fos, mRNA was examined by RT-PCR analysis after stimulating RA-treated cells with neurotrophins. […]

c-Fos = c-Fos immunofluorescence double labeling after neurotrophin stimulation; format: cell-based, rat; settings: RA for 6 days prior to stimulation by neurotrophins
Experimental: as §1, with “For further differentiation, the medium was replaced by N2 medium containing 0.5% FBS and one of the following: sterile water (control solvent), mouse 2.55 NGF (50 ng/ml, Boehringer Mannheim, Indianapolis, Ind.), rhBDNF (20 ng/ml, Alomone Labs, Jerusalem, Israel), rhNT-3 (40 ng/ml, Genentech, South San Francisco, Calif.). The medium was replaced every two days. For inhibition of the tyrosine kinase activity of the Trk receptors, K-252a (100 nM, Calbiochem, San Diego, Calif.) was added to the medium.” left out
Immunofluorescence. […] Both the average percentage and the absolute number +/− SEM of immunofluorescent cells were determined by counting 10 or 50 high power fields (20×) visualized under fluorescence. The total number of cells was counted using nuclear counterstaining with 4′,6diamidino-2-phenylindole (DAPI, Sigma). […]

## CC1=C(/C=C/C(C)=C/C=C/C(C)=C/C(=O)O)C(C)(C)CCC1 [RA, all-trans retinoic acid]
[1]
  baseline expression of c-fos mRNA: increased
c-Fos
  number of c-Fos-positive cells: significantly enhanced

Source: US6767738B1, “Method of isolating adult mammalian CNS-derived progenitor stem cells using density gradient centrifugation” (The Salk Institute for Biological Studies, priority 1999, dated 2004)
